From ChEMBL document CHEMBL1132014, “Novel 1,2,3,4-tetrahydroisoquinolines with high affinity and selectivity for the dopamine D3 receptor” (Bioorg Med Chem Lett, 1999) come the findings set out here.

Structures are written as SMILES.

The target of series [1] is T1, D(2) dopamine receptor (Homo sapiens, UniProt P14416). Put plainly: Displacement [125I]iodosulpiride from human Dopamine receptor D2 expressed in CHO cells. The format is cell-based.
Series [2] has as its target T2, D(3) dopamine receptor (Homo sapiens, UniProt P35462). Put plainly: Displacement of [125I]iodosulpiride from human Dopamine receptor D3 expressed in CHO cells. The format is cell-based. In general terms: Loss of bound radioactivity is the signal in a displacement assay; it reports binding, not function.
The nature of series [3]: Pharmacokinetic property (CLb)of the compound was determined in rat. The format is ADME, organism-based. To be noted: blood, read-out: CLb.
A short description of series [4]: Pharmacokinetic property (blood clearance) in rat. The format is ADME, organism-based.
Series [5] addresses T1, D(2) dopamine receptor. Put plainly: In vitro functional antagonist effect by its affinity to bind to Dopamine receptor D2.
Series [6] addresses T2, D(3) dopamine receptor. Put plainly: In vitro functional antagonist effect by its affinity to bind to Dopamine receptor D3.
Series [7] can be described thus: Half life in rat. The format is ADME, organism-based. To be noted: in vivo.

T1 sequence (P14416 whole entry): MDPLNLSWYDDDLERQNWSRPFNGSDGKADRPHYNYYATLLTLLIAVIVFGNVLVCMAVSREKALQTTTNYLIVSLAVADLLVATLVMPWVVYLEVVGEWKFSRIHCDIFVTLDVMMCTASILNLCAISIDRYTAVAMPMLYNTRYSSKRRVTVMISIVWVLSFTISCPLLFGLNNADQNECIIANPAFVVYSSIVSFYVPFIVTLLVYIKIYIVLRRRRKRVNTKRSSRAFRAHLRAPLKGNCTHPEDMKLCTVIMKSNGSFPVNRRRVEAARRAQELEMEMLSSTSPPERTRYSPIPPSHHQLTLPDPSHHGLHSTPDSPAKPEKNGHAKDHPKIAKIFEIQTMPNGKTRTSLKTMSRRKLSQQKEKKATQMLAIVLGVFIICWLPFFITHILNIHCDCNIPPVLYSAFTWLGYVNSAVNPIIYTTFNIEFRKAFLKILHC
T2 sequence (P35462 whole entry): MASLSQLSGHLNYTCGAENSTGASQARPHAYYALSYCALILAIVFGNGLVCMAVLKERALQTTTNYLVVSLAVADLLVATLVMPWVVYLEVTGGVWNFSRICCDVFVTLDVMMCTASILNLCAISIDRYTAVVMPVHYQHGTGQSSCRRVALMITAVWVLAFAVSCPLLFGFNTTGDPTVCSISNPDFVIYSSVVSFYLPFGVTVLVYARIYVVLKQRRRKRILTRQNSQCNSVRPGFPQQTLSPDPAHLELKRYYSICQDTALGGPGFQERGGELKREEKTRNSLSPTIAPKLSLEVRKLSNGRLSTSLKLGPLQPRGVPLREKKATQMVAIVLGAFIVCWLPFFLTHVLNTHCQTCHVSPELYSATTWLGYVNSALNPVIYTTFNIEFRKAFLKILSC

A word on the Ki: it is a measure of affinity in units of concentration, obtained from inhibition or displacement. High values mean lower affinity, low ones higher affinity. Take `CC(=O)c1cccc(/C=C/C(=O)NCCCCN2CCc3ccc(OS(=O)(=O)C(F)(F)F)cc3C2)c1`: the Ki at D(2) dopamine receptor [1] is 398 nM; on D(3) dopamine receptor [2], 3.98 nM.

With `O=C(/C=C/c1ccc2nc(O)ccc2c1)NCCCCN1CCc2ccc(OS(=O)(=O)C(F)(F)F)cc2C1`, the figures for the Ki at D(2) dopamine receptor [1] and on D(3) dopamine receptor [2] were 158 nM and 2.51 nM, respectively.

Turning to `O=C(NCCCCN1CCc2ccccc2C1)c1ccc(-c2ccccc2)cc1`, the values for the Ki on D(2) dopamine receptor [1] and on D(3) dopamine receptor [2] were 501 nM and 25.1 nM, respectively. Besides, the clearance in series [3] came out at 20 mL/min/kg.

As to `CN(C)c1ccc(/C=C/C(=O)NCCCCN2CCc3ccc(OS(=O)(=O)C(F)(F)F)cc3C2)cc1`, the Ki on D(2) dopamine receptor [1] is 501 nM; at D(3) dopamine receptor [2], 3.98 nM.

`COc1cccc(/C=C/C(=O)NCCCCN2CCc3ccc(OS(=O)(=O)C(F)(F)F)cc3C2)c1`: the inhibitory constant (Ki) on D(2) dopamine receptor [1] was 316 nM; at D(3) dopamine receptor [2], 3.16 nM.

On to `O=C(/C=C/c1ccc2ccccc2n1)NCCCCN1CCc2ccc(OS(=O)(=O)C(F)(F)F)cc2C1`, for which the inhibition constant (Ki) was 398 nM on D(2) dopamine receptor [1] and 3.98 nM at D(3) dopamine receptor [2].

Consider `CC(=O)c1ccc(-c2ccc(C(=O)NCCCCN3CCc4ccc(OS(=O)(=O)C(F)(F)F)cc4C3)cc2)cc1`, for which the figures for the Ki at D(2) dopamine receptor [1] and on D(3) dopamine receptor [2] were 200 nM and 2.51 nM, respectively.

As for `COc1ccc(/C=C/C(=O)NCCCCN2CCc3ccc(OS(=O)(=O)C(F)(F)F)cc3C2)cc1`, the Ki at D(2) dopamine receptor [1] was 316 nM; on D(3) dopamine receptor [2], 3.98 nM.

In the case of `O=C(/C=C\c1ccccc1)NCCCCN1CCc2ccc(OS(=O)(=O)C(F)(F)F)cc2C1`, the results for the Ki on D(2) dopamine receptor [1] and at D(3) dopamine receptor [2] were 316 nM and 39.8 nM, respectively.

On to `O=C(NCCCCN1CCc2ccc(OS(=O)(=O)C(F)(F)F)cc2C1)c1cccc(-c2ccccc2)c1`, for which the values for the inhibition constant (Ki) at D(2) dopamine receptor [1] and at D(3) dopamine receptor [2] were 501 nM and 126 nM, respectively.

Turning to `Cn1c(=O)ccc2cc(/C=C/C(=O)NCCCCN3CCc4ccc(OS(=O)(=O)C(F)(F)F)cc4C3)ccc21`, the Ki at D(2) dopamine receptor [1] was 316 nM; at D(3) dopamine receptor [2], 10 nM.

For the molecule `O=C(/C=C/c1ccc2ccccc2c1)NCCCCN1CCc2ccc(OS(=O)(=O)C(F)(F)F)cc2C1`, the Ki at D(2) dopamine receptor [1] is 1000 nM; on D(3) dopamine receptor [2] it was 5.01 nM.

Broadly, the pKb is the Kb on a negative log10 scale, so that one unit is a factor of ten. By half-life is commonly meant the time needed for the level to fall by half in the phase considered. Read a low half-life as rapid decline. Regarding `O=C(/C=C/c1c[nH]c2ccccc12)NCCCCN1CCc2ccc(OS(=O)(=O)C(F)(F)F)cc2C1`, the Ki at D(2) dopamine receptor [1] is 631 nM; at D(3) dopamine receptor [2] it was 3.98 nM. Also, the clearance in series [4] was 27 mL/min/kg. Moreover, the pKb at D(2) dopamine receptor [5] amounted to 6.6; at D(3) dopamine receptor [6], 8.9. In series [7], this molecule gave a half-life of 2.5 h.

Consider `O=C(/C=C/c1ccccc1)NCCCCN1CCc2ccc(OS(=O)(=O)C(F)(F)F)cc2C1`, for which the Ki at D(2) dopamine receptor [1] was 316 nM; at D(3) dopamine receptor [2] it was 5.01 nM.

For `O=C(NCCCCN1CCc2ccc(OS(=O)(=O)C(F)(F)F)cc2C1)c1ccc(-c2ccccc2)cc1`, the Ki is 501 nM on D(2) dopamine receptor [1] and 7.94 nM at D(3) dopamine receptor [2].

As to `CCCN(CCCCNC(=O)c1ccc(-c2ccccc2)cc1)C1CCc2c(Cl)cccc2C1` (stereo unspecified), in series [3], the clearance came to 80 mL/min/kg.

For `Cc1ccccc1-c1ccc(C(=O)NCCCCN2CCc3ccc(OS(=O)(=O)C(F)(F)F)cc3C2)cc1`, the Ki on D(2) dopamine receptor [1] was 1580 nM; at D(3) dopamine receptor [2], 50.1 nM.

`O=C(/C=C/c1ccc2[nH]ccc2c1)NCCCCN1CCc2ccc(OS(=O)(=O)C(F)(F)F)cc2C1`: the Ki at D(2) dopamine receptor [1] was 200 nM; on D(3) dopamine receptor [2], 2 nM.

Turning to `CC(=O)c1ccc(/C=C/C(=O)NCCCCN2CCc3ccc(OS(=O)(=O)C(F)(F)F)cc3C2)cc1`, the Ki at D(2) dopamine receptor [1] is 251 nM; on D(3) dopamine receptor [2], 3.98 nM.

Take `O=C(/C=C/c1cnc2ccccc2c1)NCCCCN1CCc2ccc(OS(=O)(=O)C(F)(F)F)cc2C1`: the values for the Ki at D(2) dopamine receptor [1] and on D(3) dopamine receptor [2] were 316 nM and 3.98 nM, respectively.

For `O=C(NCCCCN1CCc2ccc(OS(=O)(=O)C(F)(F)F)cc2C1)c1ccc(-c2ccc(N3CCCC3=O)cc2)cc1`, the values for the Ki at D(2) dopamine receptor [1] and on D(3) dopamine receptor [2] were 126 nM and 2.51 nM, respectively.

Take `CNC(=O)c1ccc(-c2ccc(C(=O)NCCCCN3CCc4ccc(OS(=O)(=O)C(F)(F)F)cc4C3)cc2)cc1`: the Ki was 100 nM on D(2) dopamine receptor [1] and 2.51 nM at D(3) dopamine receptor [2].

Consider `CNC(=O)c1cccc(-c2ccc(C(=O)NCCCCN3CCc4ccc(OS(=O)(=O)C(F)(F)F)cc4C3)cc2)c1`, for which the Ki on D(2) dopamine receptor [1] is 126 nM; on D(3) dopamine receptor [2], 2 nM.

`O=C(/C=C/c1ccc2ncccc2c1)NCCCCN1CCc2ccc(OS(=O)(=O)C(F)(F)F)cc2C1`: the results for the Ki on D(2) dopamine receptor [1] and at D(3) dopamine receptor [2] were 251 nM and 3.16 nM, respectively.

For the molecule `Cc1cc(C(=O)NCCCCN2CCc3ccc(OS(=O)(=O)C(F)(F)F)cc3C2)ccc1-c1ccccc1`, the Ki was 1000 nM at D(2) dopamine receptor [1] and 50.1 nM on D(3) dopamine receptor [2].

For `Cc1nnc(-c2ccc(-c3ccc(C(=O)NCCCCN4CCc5ccc(OS(=O)(=O)C(F)(F)F)cc5C4)cc3)cc2)o1`, the Ki at D(2) dopamine receptor [1] was 100 nM; at D(3) dopamine receptor [2], 2 nM.
